Test results reported in patent US9918991B2, “Topical antimicrobial compositions and methods of using same” (Hydromer, Inc., priority 2010, dated 2018).

How the values were obtained:
[1] = Influence of hoof bath contamination by dirt and manure on effectiveness
[2] = test system: digital dermatitis lesion (DDL); test: Footbath study in a large commercial dairy farm, digital dermatitis lesions; format: in vivo, cows; conditions: study 1; 5% solution, twice weekly; mixed logistic regression
Experimental: The study was conducted in a large commercial dairy farm. […] The adjusted odds of digital dermatitis lesion (DDL) throughout the study period were analyzed by mixed logistic regression model.

[3] = test system: Arcanobacterium pyogenes (ATCC#9731 and ATCC#19411); test: MIC Test against Arcanobacterium pyogenes under anaerobic conditions (TOXIKON); format: cell-based
Experimental: MIC Test of example 4 against Arcanobacterium pyogenes (ATCC#9731 and ATCC#19411) under anaerobic conditions were conducted by the TOXIKON.
Under the same conditions as mentioned in Example 5 conducted by TOXIKON the MIC of a 10% copper sulfate solution (commonly used in hoof baths worldwide) was determined.

T. mentagrophytes = test: Hoof samples submerged, washed to simulate leaching, overlaid with T. mentagrophytes agar; format: cell-based; conditions: 10 wt. % solution; hoof submerged 15 seconds, washed two hours, 3 and 6 days
Experimental: (§1) Hoof samples were submerged for 15 seconds in (1) the composition of the invention (i.e., 4:1 of cosmetic dye:Phenoxyethanol, total amount about 0.3 wt. %); (2.1) a 10 wt. % copper sulfate (2.2) a 10 wt. % zinc sulfate solution; (3) untreated as a control. The samples were then washed for two hours to simulate leaching. The samples were then placed into melted PA agar to solidify. Melted agar containing 10E5 CFU/ml of T. mentagrophytes was then added and incubated at room temperature for 3 and 6 days.
as §1, with “antimicrobial” for “cosmetic”, “about 0.21 wt. % or” for “about”, “(2)” for “(2.1)”, “or” for “(2.2) a”, “solution; or” for “solution;”

bacteria [4] = test: Growth / inhibition activity on a hoof surface; format: cell-based; conditions: 0.2% alone
bacteria [5] = test: Bacteria growth inhibition on the hoof (Test Method MCR 3.0 with actual hoof material); format: cell-based; conditions: aqueous solution 0.25 to 0.5%
Source text: (§2) Comparative Antimicrobial Testing of Example 4 with Cosmetic Dyes According to Test Method MCR 3.0 with Actual Hoof Material

fungi = test: Fungi growth inhibition on the hoof (Test Method MCR 3.0 with actual hoof material); format: cell-based; conditions: aqueous solution 0.25 to 0.5%
Source text: as §2

O=CCCCC=O [glutaraldehyde]
loses effectiveness after contamination ([1]; at 2% concentration, FIG. 3): ≤ 24 h

C=O [formalin]
odds of DDL compared with the Dragonhyde group [2]: 1.36 times higher

benzalkonium chloride
loses effectiveness after contamination ([1]; at 1% concentration, FIG. 4): ≤ 24 h

O=S(=O)([O-])[O-].[Cu+2] [copper sulfate]
loses effectiveness after contamination ([1]; at 2.5% and 5% concentrations, FIG. 1): ≤ 4 h | MIC (concentration giving about 100% reduction / kill) ([3]; anaerobic conditions, both strains): at least 0.078% | kill rate ([3]; concentration at least 0.078%, both strains): ~100% | required concentration in comparison to a solution according to example 4 ([3]; to control Arcanobacterium pyogenes): at least 8 times | microbial growth (T. mentagrophytes): intense microbial growth

O=S(=O)([O-])[O-].[Zn+2] [zinc sulfate]
microbial growth (T. mentagrophytes): intense microbial growth

Cc1cc2nc3ccc(N(C)C)cc3[s+]c2cc1N.[Cl-] [Toluidine Blue]
growth on a hoof surface (bacteria [4]): bacterial growth | bacteria growth inhibition on the hoof (bacteria [5]): 80% | fungi growth inhibition on the hoof (fungi): 50%

CN(C)c1ccc(C(=C2C=CC(=[N+](C)C)C=C2)c2ccc(N(C)C)cc2)cc1.[Cl-] [Gentian Violet, N-[4[Bis[4-(dimethylamino)-phenyl]methylene]-2,5-cyclohexadien-1-ylidene]-N-methyl-methanaminium chloride]
bacteria growth inhibition on the hoof (bacteria [5]): 90% | fungi growth inhibition on the hoof (fungi): 80%

CN(C)c1ccc2nc3ccc(=[N+](C)C)cc-3sc2c1 [Methylene Blue]
bacteria growth inhibition on the hoof (bacteria [5]): 60% | fungi growth inhibition on the hoof (fungi): 50%
